This experiment is described as follows: Inhibition of recombinant PDK1 (unknown origin) using peptide as substrate.

Some results are limits rather than exact numbers.

As for `COc1cc2ncc(C#N)c(Nc3ccc(OCc4ccccn4)c(Cl)c3)c2cc1NC(=O)/C=C/CN(C)C`, the IC50 is over 5 µM.
